Measurements reported in article PMC8141533, “Structural and biochemical analysis of human ADP-ribosyl-acceptor hydrolase 3 reveals the basis of metal selectivity and different roles for the two magnesium ions” (The Journal of Biological Chemistry, 2021).
Substitutions are numbered along the chain they refer to. “Also recorded” adds a separate entry of the source. Blank lines part the entries; values can stand above or below the compound they belong to.

Columns and labels:
[1] = molecular target: T1, ARH3^D314A (Homo sapiens, UniProt Q9NX46, D314A); assay: Isothermal titration calorimetry (ITC) of ADPR binding to ARH3^D314A
T1 construct: His6 with PreScission protease cleavage site (N); made in house
T1 sequence (Q9NX46 1-363 D314A): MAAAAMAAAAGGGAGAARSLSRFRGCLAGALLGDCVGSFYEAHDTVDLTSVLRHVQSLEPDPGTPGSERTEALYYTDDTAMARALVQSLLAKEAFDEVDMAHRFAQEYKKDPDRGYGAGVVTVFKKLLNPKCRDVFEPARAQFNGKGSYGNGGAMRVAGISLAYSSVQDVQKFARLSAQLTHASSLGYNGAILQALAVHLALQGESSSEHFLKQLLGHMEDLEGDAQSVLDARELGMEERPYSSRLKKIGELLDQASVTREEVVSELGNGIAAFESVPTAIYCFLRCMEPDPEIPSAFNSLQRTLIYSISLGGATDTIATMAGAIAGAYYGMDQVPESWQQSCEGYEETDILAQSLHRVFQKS
Protocol: (§1) ITC experiments were performed at 25 °C in a buffer containing 150 mM NaCl, 100 mM Tris at pH 7.5, and 5 mM divalent metals (MgCl2, MnCl2, and CaCl2) or EDTA (Sigma–Aldrich). The WT or mutants of ARH3 were placed in a cell at 50 μM concentration, and ADPR was placed in the injection syringe at 660 μM concentration. Overall, 26 injections (10 μl per injection except for the first sample [5 μl]) were administered with an interval of 5 min between peaks to allow the baseline to be stabilized. […] The obtained plots were fitted with a single-site binding model in the Origin software package (MicroCal, Inc).

[2] = molecular target: T2, ARH3^D77A (Homo sapiens, UniProt Q9NX46, D77A); assay: Isothermal titration calorimetry (ITC) of ADPR binding to ARH3^D77A
T2 construct: His6 with PreScission protease cleavage site (N); made in house
T2 sequence (Q9NX46 1-363 D77A): T1 sequence (Q9NX46 1-363 D314A) with D77A, A314D
Protocol: as §1

[3] = molecular target: T3, ARH3^WT (Homo sapiens, UniProt Q9NX46); assay: Isothermal titration calorimetry (ITC) of ADPR binding to ARH3^WT; details: for Kd / N (sites) / ΔG / ΔH / −TΔS: 25 °C, pH 7.5
T3 construct: we determined the structure of full-length ARH3 in complex with ADPR and Ca^2+; made in house
T3 sequence (Q9NX46 1-363): T1 sequence (Q9NX46 1-363 D314A) with A314D
Protocol: as §1

[4] = molecular target: T4, ARH3 (Homo sapiens, UniProt Q9NX46); assay: Gel-based PAR turnover assay (PARylated PARP1C substrate); type: biochemical; details: for effect on PAR hydrolysis by ARH3: WT ARH3 2 μM, 5 mM EDTA or Ca^2+, PARylated PARP1C, 1 h, 37 °C
T4 construct: we determined the structure of full-length ARH3 in complex with ADPR and Ca^2+; made in house
T4 sequence (Q9NX46 1-363): T1 sequence (Q9NX46 1-363 D314A) with A314D
Protocol: A gel-based PAR-turnover assay was performed to evaluate the enzymatic activity of ARH3^WT, ARH3^D77A, ARH3^D78A, ARH3^D314A, and ARH3^D316A, as described previously ([14], [40]). Briefly, 2 μM of the catalytic domain of human PARP1 (PARP1C; residues 375–1014) was auto-PARylated at 37 °C for 30 min in the presence of 2 μM DBD of PARP1 (residues 1–374), 2 μM double-stranded DNA, and 400 μM β-NAD^+ (Sigma) in a buffer containing 100 mM NaCl, 50 mM Tris (pH 7.5), 10 mM MgCl2, and 2 mM DTT. ARH3 proteins (in the presence of 5 mM EDTA, Mg^2+, or Ca^2+) with final concentrations of 2 μM were mixed with the PARylated PARP1C substrate, followed by incubation for 1 h in 37 °C. Reactions then were stopped by adding 4× SDS-loading dye (Bio-Rad) and visualized by Coomassie blue staining of SDS-polyacrylamide gels.

[5] = ARH3^D314A, 5 mM Mg^2+, 25 °C, pH 7.5
[6] = ARH3^D77A, 5 mM Mg^2+, 25 °C, pH 7.5

- decrease in ADPR-binding affinity compared with ARH3^WT ([1]; ARH3^D314A versus ARH3^WT, Mg^2+): 44 fold
- Kd [1, 5]: 62.9 ± 2.9 µM
- N (sites) [1, 5]: 0.96 ± 0.04 sites
- ΔG [1, 5]: -5.74 kcal/M
- ΔH [1, 5]: -10.36 kcal/M
- −TΔS [1, 5]: 4.61 kcal/M
- increase in ADPR-binding affinity compared with ARH3^WT ([2]; ARH3^D77A versus ARH3^WT, Mg^2+): 23 fold
- Kd [2, 6]: 0.06 ± 0.01 µM
- N (sites) [2, 6]: 1.18 ± 0.01 sites
- ΔG [2, 6]: -9.87 kcal/M
- ΔH [2, 6]: -8.50 kcal/M
- −TΔS [2, 6]: -1.37 kcal/M
- Kd ([3]; 5 mM Ca^2+): 7.81 ± 0.51 µM
- N (sites) ([3]; 5 mM Ca^2+): 1.18 ± 0.01 sites
- ΔG ([3]; 5 mM Ca^2+): -6.96 kcal/M
- ΔH ([3]; 5 mM Ca^2+): -5.71 kcal/M
- −TΔS ([3]; 5 mM Ca^2+): -1.25 kcal/M
- Kd ([3]; 5 mM EDTA (metal-free)): 80.7 ± 5.25 µM
- N (sites) ([3]; 5 mM EDTA): 0.96 ± 0.08 sites
- ΔG ([3]; 5 mM EDTA): -5.59 kcal/M
- ΔH ([3]; 5 mM EDTA): -5.164 kcal/M
- −TΔS ([3]; 5 mM EDTA): -0.42 kcal/M
- Kd ([3]; 5 mM Mg^2+): 1.42 ± 0.07 µM
- N (sites) ([3]; 5 mM Mg^2+): 1.12 ± 0.01 sites
- ΔG ([3]; 5 mM Mg^2+): -7.98 kcal/M
- ΔH ([3]; 5 mM Mg^2+): -9.29 kcal/M
- −TΔS ([3]; 5 mM Mg^2+): 1.31 kcal/M
- Kd ([3]; 5 mM Mn^2+): 0.83 ± 0.05 µM
- N (sites) ([3]; 5 mM Mn^2+): 1.09 ± 0.01 sites
- ΔG ([3]; 5 mM Mn^2+): -8.29 kcal/M
- ΔH ([3]; 5 mM Mn^2+): -10.57 kcal/M
- −TΔS ([3]; 5 mM Mn^2+): 2.28 kcal/M
- reduction in ADPR-binding affinity with Ca^2+ compared with Mg^2+ ([3]; KD^Ca versus KD^Mg): about a sixfold reduction
- increase in binding affinity with Mg^2+ versus metal-free enzyme (EDTA) ([3]; KD^Mg versus KD^EDTA): approximately 60 fold
SMILES: Nc1ncnc2c1ncn2[C@@H]1O[C@H](COP(=O)(O)OP(=O)(O)OC[C@H]2OC(O)[C@H](O)[C@@H]2O)[C@@H](O)[C@H]1O (stereo partly shown) [ADPR, ADP-ribose]

SMILES: [Ca+2].[Cl-].[Cl-] [Ca^2+, CaCl2]
- effect on PAR hydrolysis by ARH3 [4]: inhibit; also recorded: effectively suppresses PAR hydrolysis
- Ca2+-dependent inhibition of ARH3 PAR hydrolysis activity ([4]; in the presence of Mg2+ and increasing concentrations of Ca2+, 5 mM Ca2+): sufficient to effectively inhibit ARH3 activity

SMILES: O=C(O)CN(CCN(CC(=O)O)CC(=O)O)CC(=O)O [EDTA]
- effect on PAR hydrolysis by ARH3 [4]: inhibit; also recorded: effectively suppresses PAR hydrolysis
